This is an account of results in patent US8710055B2, “Triazolylphenyl sulfonamides as serine/threonine kinase inhibitors” (Boehringer Ingelheim International GmbH, priority 2010, dated 2014).

Structures are written as SMILES.

This assay relates to SK-MEL-28 cells (B-RAF V600E mutated). Kind of assay: Inhibition of the proliferation of cultivated human melanoma cells (SK-MEL-28), AlamarBlue. Format: cell-based. To be noted: 72 h incubation. The method, then: Measurement of the Inhibition of the Proliferation of Cultivated Human Melanoma Cells (SK-MEL-28, B-RAF^[…] Mutated)
For measuring the proliferation of cultivated human tumour cells, cells of the melanoma cell line SK-MEL-28 [from American Type Culture Collection (ATCC)] are cultivated in MEM medium, supplemented with 10% foetal calf serum, 2% sodium bicarbonate, 1 mM sodium pyruvate, 1% non-essential amino acids (e.g. from Cambrex, # BE13-114E) and 2 mM glutamine. SK-MEL-28 cells are placed in 96-well flat bottomed dishes in a density of 2500 cells per well in supplemented MEM medium (see above) and incubated overnight in an incubator (at 37° C. and 5% CO2). The active substances are added to the cells in different concentrations, so that a concentration range of 50 μM to 3.2 nM is covered. If necessary the initial concentration of 50 μM is changed to 10 μM or 2 μM and further dilution is carried out accordingly (up to 0.6 nM or 0.12 nM). After an incubation period of a further 72 h 20 μL AlamarBlue reagent (Serotec Ltd., # BUF012B) are added to each well and the cells are incubated for a further 3-6 h. The colour change of the AlamarBlue reagent is determined in a fluorescence spectrophotometer (e.g. Gemini, Molecular Devices). EC50 values are calculated using a software program (GraphPadPrizm).
(In general: The colour change of resazurin is a common sign of viable cells or microbes.)
With `CCCS(=O)(=O)Nc1ccc(F)c(-n2cc(-c3cncc(N4CCN(CC#N)CC4)c3)nn2)c1F` [Example I-52], the EC50 – broadly, the concentration giving half of the maximal effect – came to 153 nM. In the case of `COc1cncc(-c2cn(-c3c(Cl)ccc(NS(=O)(=O)C(C)C)c3F)nn2)c1` [Example I-41] it was 403 nM. To `COc1cncc(-c2cn(-c3c(F)ccc(NS(=O)(=O)CC4CC4)c3F)nn2)c1` [Example I-46] belongs 480 nM.

In turn, `CCCS(=O)(=O)Nc1ccc(F)c(-n2cc(-c3cncc(C)c3)nn2)c1F` [Example I-4] returned an EC50 of 535 nM. In the case of `O=S(=O)(Nc1ccc(F)c(-n2cc(-c3cncc(N4CCN(C5CC5)CC4)c3)nn2)c1F)c1ccoc1` [Example I-60] it was 9 nM; in that of `COc1cncc(-c2cn(-c3c(F)ccc(NS(=O)(=O)c4ccoc4)c3F)nn2)c1` [Example I-45], 24 nM; in that of `CC(C)S(=O)(=O)Nc1ccc(F)c(-n2cc(-c3cncc(N4CCN(CC5CC5)CC4)c3)nn2)c1F` [Example I-22], 231 nM.

The molecule `CC(C)CS(=O)(=O)Nc1ccc(F)c(-n2cc(-c3cncc(N4CCN(C(C)C)CC4)c3)nn2)c1F` [Example I-26] showed an EC50 of 98 nM. Molecule `CCCS(=O)(=O)Nc1ccc(F)c(-n2cc(-c3cncnc3)nn2)c1F` [Example I-11] returned a concentration giving a half-maximal response (EC50) of 506 nM. To `COCCS(=O)(=O)Nc1ccc(F)c(-n2cc(-c3cncc(N4CCN(C5CC5)CC4)c3)nn2)c1F` [Example I-56] belongs 675 nM; to `CC(C)CS(=O)(=O)Nc1ccc(F)c(-n2cc(-c3cncc(N4CCN(C(C)(C)C)CC4)c3)nn2)c1F` [Example I-27], 96 nM; to `CCCS(=O)(=O)Nc1ccc(F)c(-n2cc(-c3cncc(N4CCN(CC)CC4)c3)nn2)c1Cl` [Example I-66], 55 nM.

In turn, `C#CCN1CCN(c2cncc(-c3cn(-c4c(F)ccc(NS(=O)(=O)CCC)c4Cl)nn3)c2)CC1` [Example I-73] showed an EC50 of 44 nM. In the case of `CCCS(=O)(=O)Nc1ccc(F)c(-n2cc(-c3cncc(N4CCN(C5CC5)CC4)c3)nn2)c1F` [Example I-18] it was 75 nM. As to `CCCS(=O)(=O)Nc1ccc(F)c(-n2cc(-c3cncc(N4CCN(CCOCC)CC4)c3)nn2)c1F` [Example I-3], the EC50 was 82 nM. To `CCCS(=O)(=O)Nc1ccc(F)c(-n2cc(-c3cncc(N(C)CCOC)c3)nn2)c1F` [Example I-30] belongs 1230 nM; to `CCCS(=O)(=O)Nc1ccc(F)c(-n2cc(-c3cncc(OCCOC)c3)nn2)c1F` [Example I-36], 589 nM. To `CCCS(=O)(=O)Nc1ccc(F)c(-n2cc(-c3cncc(N4CCC(N5CCOCC5)CC4)c3)nn2)c1F` [Example I-8] belongs 305 nM; to `CC(C)N1CCN(c2cncc(-c3cn(-c4c(F)ccc(NS(=O)(=O)c5ccoc5)c4F)nn3)c2)CC1` [Example I-61], 10 nM.

As for `CCCS(=O)(=O)Nc1ccc(F)c(-n2cc(-c3cncc(N(C)CCN4CCOCC4)c3)nn2)c1F` [Example I-31], the EC50 came to 1450 nM.

As for `COc1cncc(-c2cn(-c3c(F)ccc(NS(=O)(=O)c4cc(F)ccc4F)c3F)nn2)c1` [Example I-38], the EC50 is 363 nM. Turning to `CCCS(=O)(=O)Nc1ccc(F)c(-n2cc(-c3cncc(OC)c3)nn2)c1F` [Example I-2], the EC50 stood at 216 nM. On to `COc1cncc(-c2cn(-c3c(F)ccc(NS(=O)(=O)c4cccnc4)c3F)nn2)c1` [Example I-42], for which a half-maximal effect (EC50) was put at 292 nM.

In turn, `CCCS(=O)(=O)Nc1ccc(F)c(-n2cc(-c3cncc(N4CCN(CC5CC5)CC4)c3)nn2)c1F` [Example I-10] yielded an EC50 of 107 nM.

`CC(C)S(=O)(=O)Nc1ccc(F)c(-n2cc(-c3cncc(N4CCN(C)CC4)c3)nn2)c1F` [Example I-23] showed an EC50 of 459 nM. In the case of `CCCS(=O)(=O)Nc1ccc(F)c(-n2cc(-c3cncc(N4CCN(C5CC5)CC4)c3)nn2)c1Cl` [Example I-65] it was 32 nM. In the case of `CCCS(=O)(=O)Nc1ccc(F)c(-n2cc(-c3cncc(N4CCN(C5CCOC5)CC4)c3)nn2)c1F` (centres unmarked) [Example I-58] it was 71 nM; in that of `CCCS(=O)(=O)Nc1ccc(Cl)c(-n2cc(-c3cncc(OC)c3)nn2)c1F` [Example I-39], 145 nM. In the case of `CC(C)N1CCN(c2cncc(-c3cn(-c4c(F)ccc(NS(=O)(=O)C(C)C)c4F)nn3)c2)CC1` [Example I-21] it was 314 nM; in that of `CCCS(=O)(=O)Nc1ccc(F)c(-n2cc(-c3cncc(N4CCN(C5CCC5)CC4)c3)nn2)c1F` [Example I-59], 98 nM.

`CCCS(=O)(=O)Nc1ccc(F)c(-n2cc(-c3cncc(OCCN(C)C(C)C)c3)nn2)c1F` [Example I-37] came in with an EC50 of 928 nM. Molecule `O=S(=O)(Nc1ccc(F)c(-n2cc(-c3cncc(N4CCN(CC5CC5)CC4)c3)nn2)c1Cl)c1ccoc1` [Example I-54] showed an EC50 of 7 nM. In the case of `O=S(=O)(Nc1ccc(F)c(-n2cc(-c3cncc(N4CCN(C5CC5)CC4)c3)nn2)c1Cl)c1ccoc1` [Example I-67] it was 4 nM; in that of `CCCS(=O)(=O)Nc1ccc(F)c(-n2cc(-c3cncc(N4CCN(C(C)C)CC4)c3)nn2)c1Cl` [Example I-63], 44 nM; in that of `CCCS(=O)(=O)Nc1ccc(F)c(-n2cc(-c3cncc(N4CCN(CCOC(C)C)CC4)c3)nn2)c1F` [Example I-16], 87 nM. To `CCCS(=O)(=O)Nc1ccc(F)c(-n2cc(-c3cncc(-n4cnc(C)c4)c3)nn2)c1F` [Example I-32] belongs 114 nM. Consider `CCCS(=O)(=O)Nc1ccc(F)c(-n2cc(-c3cncc(OC(C)C)c3)nn2)c1F` [Example I-34], for which the EC50 is 218 nM. To `CCCS(=O)(=O)Nc1ccc(F)c(-n2cc(-c3cncc(N4CCN(CC5CC5)CC4)c3)nn2)c1Cl` [Example I-64] belongs 38 nM. To `C#CCN1CCN(c2cncc(-c3cn(-c4c(F)ccc(NS(=O)(=O)c5ccoc5)c4Cl)nn3)c2)CC1` [Example I-72] belongs 10 nM; to `CCCS(=O)(=O)Nc1ccc(F)c(-n2cc(-c3cccnc3)nn2)c1F` [Example I-15], 1820 nM; to `CCCS(=O)(=O)Nc1ccc(F)c(-n2cc(-c3cncc(-n4cnc(C(F)(F)F)c4)c3)nn2)c1F` [Example I-57], 306 nM. To `CCCS(=O)(=O)Nc1ccc(F)c(-n2cc(-c3cncc(OC)c3)nn2)c1Cl` [Example I-75] belongs 273 nM; to `CCCS(=O)(=O)Nc1ccc(F)c(-n2cc(-c3cncc(-n4cc(C)nc4C)c3)nn2)c1F` [Example I-48], 545 nM.

The molecule `CC(C)CS(=O)(=O)Nc1ccc(F)c(-n2cc(-c3cncc(N4CCN(CC5CC5)CC4)c3)nn2)c1F` [Example I-28] returned an EC50 of 88 nM. To `CCCS(=O)(=O)Nc1ccc(F)c(-n2cc(-c3cncc(N4CCNCC4)c3)nn2)c1F` [Example I-50] belongs 493 nM.

`CCN1CCN(c2cncc(-c3cn(-c4c(F)ccc(NS(=O)(=O)c5ccoc5)c4Cl)nn3)c2)CC1` [Example I-74] showed an EC50 of 5 nM. To `CC(C)S(=O)(=O)Nc1ccc(F)c(-n2cc(-c3cncc(N4CCN(C(C)(C)C)CC4)c3)nn2)c1F` [Example I-20] belongs 245 nM; to `CCCS(=O)(=O)Nc1ccc(F)c(-n2cc(-c3cncc(N4CCN(C5COC5)CC4)c3)nn2)c1F` [Example I-51], 114 nM. The molecule `CCCS(=O)(=O)Nc1ccc(F)c(-n2cc(-c3cncc(F)c3)nn2)c1F` [Example I-17] registered an EC50 of 1260 nM. To `O=S(=O)(Nc1ccc(F)c(-n2cc(-c3cncc(Br)c3)nn2)c1Cl)c1ccoc1` [Example I-70] belongs 73 nM.

`COc1cncc(-c2cn(-c3c(F)ccc(NS(=O)(=O)c4ccco4)c3F)nn2)c1` [Example I-47] came in with an EC50 of 159 nM.

For `CC(C)N1CCN(c2cncc(-c3cn(-c4c(F)ccc(NS(=O)(=O)c5ccoc5)c4Cl)nn3)c2)CC1` [Example I-68], the EC50 turned out to be 6 nM. Molecule `CCCS(=O)(=O)Nc1ccc(F)c(-n2cc(-c3cnn(C)c3C)nn2)c1F` [Example I-14] showed an EC50 of 1720 nM. To `COc1cncc(-c2cn(-c3c(F)ccc(NS(=O)(=O)c4ccoc4)c3Cl)nn2)c1` [Example I-55] belongs 32 nM; to `CCCS(=O)(=O)Nc1ccc(F)c(-n2cc(-c3cncc(Br)c3)nn2)c1F` [Example I-7], 279 nM; to `O=S(=O)(Nc1ccc(F)c(-n2cc(-c3cncc(Cl)c3)nn2)c1Cl)c1ccoc1` [Example I-71], 61 nM.

With `CCCS(=O)(=O)Nc1ccc(F)c(-n2cc(-c3cncc(N4CCN(CC)CC4)c3)nn2)c1F` [Example I-1], the EC50 was 113 nM. Regarding `CCCS(=O)(=O)Nc1ccc(F)c(-n2cc(-c3cncc(N4CCOCC4)c3)nn2)c1F` [Example I-12], the EC50 was found to be 201 nM. On to `CCS(=O)(=O)Nc1ccc(Cl)c(-n2cc(-c3cncc(OC)c3)nn2)c1F` [Example I-40], for which the EC50 stood at 327 nM.

The molecule `CCCS(=O)(=O)Nc1ccc(F)c(-n2cc(-c3ccc(N)nc3)nn2)c1F` [Example I-5] displayed an EC50 of 1640 nM. In the case of `CC(C)CS(=O)(=O)Nc1ccc(F)c(-n2cc(-c3cncc(N4CCN(C)CC4)c3)nn2)c1F` [Example I-24] it was 117 nM; in that of `C#CCN1CCN(c2cncc(-c3cn(-c4c(F)ccc(NS(=O)(=O)CCC)c4F)nn3)c2)CC1` [Example I-53], 68 nM.
